The values that follow come from PubChem BioAssay (NCI).

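Compound exposure: 48 hours, 5 concentrations, 96-well plates. TGI marks complete inhibition of growth.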

Holding throughout (assay): NCI anticancer screen, dose series, 48 h
Test [1] relates to ACHN renal.
Test [2] deals with BT-549 breast.
The test system of test [3] is CAKI-1 renal.
The test system of test [4] is DU-145 prostate.
Test [5] concerns HCC-2998 colon.
For test [6], the system named is HL-60(TB) leukemia.
Test [7] has as its system K-562 leukemia.
In test [8] the test system is NCI-H522 lung.
Test [9] relates to NCI/ADR-RES ovarian.
The subject of test [10] is SF-268 CNS.
The subject of test [11] is SW-620 colon.

Consider `O=C1CC(=Nc2ccc(Cl)cc2)C(c2ccccc2)N1c1ccccc1` (configuration not stated), for which the TGI was > 100 µM in test [1]; 41.6 µM in [2]; 5.71 µM in test [3]; 53 µM in [4]; > 100 µM in test [5]; 21.3 µM in [6]. For the same compound, the TGI is > 100 µM in [7]; 7.22 µM in [8]; 95.8 µM in test [9]; > 100 µM in [10]; > 100 µM in test [11].
In the case of `Oc1ccc(-c2nc(-c3cccnc3)c(-c3ccc(Cl)cc3)[nH]2)cc1`, the TGI in test [1] is 27.6 µM; in [2], 29 µM; in test [3], 43.3 µM; in test [4], 29.4 µM; in test [5], 33.1 µM; in test [6], 36.7 µM. The TGI in test [7] is > 100 µM; in test [8], 23.8 µM; in test [9] it was 36.9 µM; in [10] it was 29.6 µM; in [11] it was 29.9 µM.
On to `NC(Cc1ccccc1)C(=O)N[C@H]1c2ccsc2/C(=N/O)[C@H]1O` (some centres not stated), for which the TGI in test [2], in test [3], in test [4], in [5], in test [6] and in test [7] was > 100 µM each time. Moreover, the TGI in [9] and in test [11] was > 100 µM in each case.
As to `CCOC(=O)c1nc2ccc(C(F)(F)F)cc2nc1NCc1cc(OC)c(OC)c(OC)c1`, the TGI in test [1] was > 100 µM; in test [2], > 100 µM; in [3] it was > 100 µM; in test [4], > 100 µM; in test [5], > 100 µM; in test [6] it was 83.4 µM. Besides, the TGI in test [8], in test [9], in [10] and in test [11] was > 100 µM throughout.
For `C=CC(CCc1ccc(C(=O)OCC)cc1)c1c(N)nc(N)[nH]c1=O` (configuration not stated), the TGI in test [2], in [3], in test [4], in test [5], in test [6] and in test [7] was > 100 µM each time. Moreover, the TGI in test [9], in test [10] and in test [11] was > 100 µM throughout.
In the case of `Cc1cc(S(=O)(=O)N=C2N(Cc3ccccc3)CCN2Cc2ccccc2)c(S)cc1Cl`, the TGI in test [2], in [3], in [4], in test [5], in test [6] and in [7] was > 100 µM in each case. The TGI in test [8], in test [9], in test [10] and in [11] was > 100 µM throughout.
As to `O=C(O)c1ccc([N+](=O)[O-])c2cc3cnccc3nc12`, the TGI was 33.5 µM in [2]; > 100 µM in [4]; 50.3 µM in test [5]; > 100 µM in test [6]; 36.5 µM in test [7]; 32.4 µM in [8]. In [9], this compound gave a TGI of 80.9 µM.
Consider `CSc1ncnc2c1ncn2C1CC(Oc2ccc(C)cc2)C(COc2ccc(C)cc2)O1` (configuration not stated), for which the TGI in test [1], in test [2], in test [3], in test [4], in test [5] and in test [6] was > 100 µM each time. The TGI in [8], in [9], in [10] and in test [11] was > 100 µM throughout.
For `COCN(CCC1=CCCCC1)C(=O)OC`, the TGI in test [1], in test [2], in test [3], in test [4], in test [5] and in test [7] was > 100 µM throughout. Also, the TGI in test [8], in test [9], in test [10] and in test [11] was > 100 µM in each case.
With `Cc1ccc(SCC(CF)OC(C)n2cnc3c(=O)[nH]c(N)nc32)cc1` (configuration not stated), the TGI in [1], in test [2], in test [3], in test [4], in test [5] and in test [6] was > 100 µM in each case. Further, the TGI in test [8], in test [9], in [10] and in [11] was > 100 µM throughout.
On to `NC(N)=NCCC[C@H](N)C(=O)NCC(=O)N[C@@H](CC(=O)O)c1ncc(NC(=O)C(F)(F)F)o1`, for which the TGI in test [1], in test [2], in [4], in [5], in test [6] and in test [7] was > 25 µM throughout. Also, the TGI in test [8], in test [9], in test [10] and in test [11] was > 25 µM each time.
For `O=C1/C(=C/c2ccc([N+](=O)[O-])cc2)C(=O)N(c2ccccc2)C1c1ccccc1` (configuration not stated), the TGI in test [1], in test [2], in [3], in test [4], in test [5] and in test [6] was > 10 µM throughout. Besides, the TGI in test [8], in test [9], in [10] and in test [11] was > 10 µM in each case.
As for `CCCCN1C(=O)N(c2ccc(OCC)cc2)C2N(CCCC)C1C(C)(C)C2(C)C` (configuration not stated), the TGI in test [1] was > 100 µM; in [2] it was > 100 µM; in test [3], 93.8 µM; in test [4], > 100 µM; in test [5] it was > 100 µM; in [8], > 100 µM. Moreover, the values for the TGI in [9], in test [10] and in test [11] were 77.6 µM, 67.7 µM and > 100 µM, respectively.
`CON(C)C(=O)CNC(=O)OCC1c2ccccc2-c2ccccc21`: the TGI was > 100 µM in test [1]; > 100 µM in test [2]; > 100 µM in test [4]; > 100 µM in test [5]; 90.9 µM in [6]; > 100 µM in [7]. The TGI in [8], in test [9], in test [10] and in test [11] was > 100 µM each time.
Turning to `COC[C@@H](C[C@H]1O[C@@](O)([C@H](O)[C@@H]2C[C@H](OC)[C@@H](O)CC/C=C(C)/C=C/[C@@H](O[C@@H]3O[C@@H](C)[C@H](OC)[C@@H](O)[C@@H]3O)[C@H](C)/C=C(C)/C=C(C)/C=C(\C)C(=O)O2)[C@H](C)[C@@H](O)[C@H]1C)O[C@H]1C[C@](C)(O)[C@@H](O[C@H]2C[C@@H](OC)[C@H](O)[C@@H](C)O2)C(C)O1` (some centres not stated), the TGI in [1], in test [2], in test [3], in [4], in test [5] and in test [6] was > 100 µM throughout. In addition, the TGI was > 46.7 µM in [7], > 100 µM in test [9], > 100 µM in test [10] and > 100 µM in [11].
Take `CCOC(=O)/C=C(/C(=O)OCC)n1ccc(=O)n(Cc2cn(COCCOC(C)=O)nn2)c1=O`: the TGI in test [1] was 28 µM; in [2], 30.4 µM; in test [3] it was 14 µM; in test [4], > 100 µM; in test [5], 36.2 µM; in test [7], > 100 µM. For the same compound, the TGI is 16 µM in [8], 48.1 µM in [9], 33.5 µM in test [10] and 29 µM in test [11].
Regarding `CC(=O)OC(/C=C/c1ccccc1)=C(OC(C)C)/C1=C(\c2ccccc2)SCCCSC1=O`, the TGI in test [1], in [2], in test [3], in [4], in test [5] and in [6] was > 100 µM each time. Further, the TGI in [7], in test [9], in test [10] and in [11] was > 100 µM throughout.
For the compound `OCC(O)COCn1nncc1Cn1ncc2c(SCc3ccccc3)ncnc21` (configuration not stated), the TGI in test [1] was > 100 µM; in [2], > 100 µM; in test [3], > 100 µM; in test [4], > 100 µM; in test [5], > 100 µM; in test [8], 33.1 µM. The TGI is > 100 µM in test [9], 41.1 µM in [10] and > 100 µM in test [11].
On to `O=C1C(CN2CCCCC2)CCC1CN1CCCCC1` (configuration not stated), for which the TGI in [1] is 47.5 µM; in test [2] it was 34 µM; in test [3], 25 µM; in test [4] it was > 100 µM; in test [5], > 62.5 µM; in [8], 11.1 µM. Further, the TGI was 64.2 µM in test [9], > 74.8 µM in test [10] and 16 µM in test [11].
In the case of `CCOC(=O)CNc1c(OCc2ccccc2)c(=O)c1=O`, the TGI in test [1], in [2], in test [4], in [5], in test [7] and in test [8] was > 100 µM in each case. Moreover, the TGI in [9], in test [10] and in [11] was > 100 µM throughout.
